These compounds were tested against T1, Alpha-synuclein (Homo sapiens, UniProt P37840) (assay: Inhibition of human alpha-synuclein aggregation expressed in Escherichia coli BL21(DE3) cells assessed as percent of un-inhibition measured at 16 hrs by thioflavin T based fluorescence assay relative to control).
Parameters: concentration or dose not given beside the values

Row | Compound | Remaining aggregation (% of control)
1 | CC[C@H](C)[C@H](NC(=O)[C@H](CO)NC(=O)[C@H](Cc1c[nH]c2ccccc12)NC(=O)[C@@H](NC(=O)[C@H](CC(C)C)NC(=O)[C@H](CCCCN)NC(=O)[C@@H](N)CCCCN)[C@@H](C)O)C(=O)N1CCC[C@@H]1C(=O)NCC(=O)N[C@@H](CCCCN)C(=O)N[C@@H](CCCCN)C(=O)N[C@@H](Cc1c[nH]c2ccccc12)C(=O)N[C@H](C(=O)N[C@H](C(=O)N[C@@H](CO)C(=O)N[C@@H](C)C(=O)O)C(C)C)[C@@H](C)O | 20%
2 | CC[C@H](C)[C@H](NC(=O)[C@H](Cc1ccc(O)cc1)NC(=O)[C@H](CCCCN)NC(=O)CNC(=O)[C@H]1CCCN1C(=O)[C@@H](NC(=O)[C@H](Cc1ccc(O)cc1)NC(=O)[C@@H](NC(=O)[C@@H](NC(=O)[C@H](CC(C)C)NC(=O)[C@H](CCCCN)NC(=O)[C@@H](N)CCCCN)[C@@H](C)O)C(C)C)[C@@H](C)CC)C(=O)N[C@H](C(=O)N[C@H](C(=O)N[C@@H](CO)C(=O)N[C@@H](C)C(=O)O)C(C)C)[C@@H](C)O | 18%
3 | H-KKLTVWI-OH | 61%
4 | H-KTWNAAAGKWTE-OH | 81%

Each compound was assayed against T1, Alpha-synuclein (assay: Inhibition of human alpha-synuclein filament formation expressed in Escherichia coli BL21(DE3) cells incubated for 72 hrs by thioflavin S based fluorescence assay).

Row | Compound | IC50
5 | O=C(O[C@@H]1Cc2c(O)cc(O)cc2O[C@H]1c1ccc(O)c(O)c1)c1cc(O)c(O)c(O)c1 [(-)-CATECHINGALLATE] | 21.4 µM
6 | Oc1cc(O)c2c(c1)O[C@H](c1ccc(O)c(O)c1)[C@H](O)C2 [(-)-EPICATECHIN] | 29.9 µM
7 | O=c1cc(-c2ccccc2)oc2cc(O)c(O)c(O)c12 [BAICALEIN] | 8.2 µM
8 | Oc1cc(O)c2cc(O)c(-c3ccc(O)c(O)c3)[o+]c2c1 [CYANIDIN CHLORIDE] | 10.3 µM
9 | Oc1cc(O)c2cc(O)c(-c3cc(O)c(O)c(O)c3)[o+]c2c1 [DELPHINIDIN CHLORIDE] | 6.5 µM
10 | Oc1cc(O)c2c(c1)O[C@H](c1cc(O)c(O)c(O)c1)[C@H](O)C2 [EPIGALLOCATECHIN] | 10.6 µM
11 | O=C(O[C@@H]1Cc2c(O)cc(O)cc2O[C@H]1c1cc(O)c(O)c(O)c1)c1cc(O)c(O)c(O)c1 [GALLOCATECHIN GALLATE] | 3.6 µM
12 | Oc1cc(O)c2c(c1)O[C@H](c1cc(O)c(O)c(O)c1)[C@@H](O)C2 [GALLOCATECHIN] | 8.9 µM
13 | Cc1cc(O)c2c(=O)c3c(O)cc(O)c4c5c(O)cc(O)c6c(=O)c7c(O)cc(C)c8c1c2c(c34)c(c78)c65 [HYPERICIN] | 7.5 µM
14 | O=c1cc(-c2ccc(O)c(O)c2)oc2cc(O)cc(O)c12 [LUTEOLIN] | 28 µM
15 | O=c1c(O)c(-c2cc(O)c(O)c(O)c2)oc2cc(O)cc(O)c12 [MYRICETIN] | 13.3 µM
16 | Oc1cc(O)c2c(c1)O[C@H](c1ccc(O)c(O)c1)[C@H](O)[C@H]2c1c(O)cc(O)c2c1O[C@H](c1ccc(O)c(O)c1)[C@@H](O)C2 [PROCYANIDIN B1] | 7.3 µM
17 | Oc1cc(O)c2c(c1)O[C@H](c1ccc(O)c(O)c1)[C@H](O)[C@H]2c1c(O)cc(O)c2c1O[C@H](c1ccc(O)c(O)c1)[C@H](O)C2 [PROCYANIDIN B2] | 4.3 µM
18 | O=c1c(O)cccc2cc(O)c(O)c(O)c12 [PURPUROGALLIN] | 12.9 µM
19 | O=c1c(O)c(-c2ccc(O)c(O)c2)oc2cc(O)cc(O)c12 [QUERCETIN] | 20 µM
20 | CO[C@H]1/C=C/O[C@@]2(C)Oc3c(C)c(O)c4c(O)c(c(/C=N/N5CCN(C)CC5)c(O)c4c3C2=O)NC(=O)/C(C)=C\C=C\[C@H](C)[C@H](O)[C@@H](C)[C@@H](O)[C@@H](C)[C@H](OC(C)=O)[C@@H]1C [RIFAMPIN] | 46.2 µM

These compounds were tested against T1, Alpha-synuclein (assay: Inhibition of alpha-synuclein aggregation (unknown origin) incubated for 8 days by thioflavin S based fluorescence assay).

Row | Compound | IC50
21 | C[C@]12CCC(=O)C=C1CC[C@@H]1[C@@H]2CC[C@]2(C)C(=O)CC[C@@H]12 [ANDROSTENEDIONE] | 85.9 µM

Each compound was assayed against T1, Alpha-synuclein (assay: Inhibition of alpha-synuclein fibril formation (unknown origin) incubated for 24 hrs to 7 days by thioflavin S based fluorescence assay).

Row | Compound | IC50
22 | Oc1cc(O)c2c(c1)O[C@H](c1ccc(O)c(O)c1)[C@H](O)C2 [(-)-EPICATECHIN] | 0.8 µM
23 | COc1cc(/C=C/C(=O)O)ccc1O [FERULATE] | 0.75 µM
24 | O=c1c(O)c(-c2cc(O)c(O)c(O)c2)oc2cc(O)cc(O)c12 [MYRICETIN] | 0.22 µM
25 | CO[C@H]1/C=C/O[C@@]2(C)Oc3c(C)c(O)c4c(O)c(c(/C=N/N5CCN(C)CC5)c(O)c4c3C2=O)NC(=O)/C(C)=C\C=C\[C@H](C)[C@H](O)[C@@H](C)[C@@H](O)[C@@H](C)[C@H](OC(C)=O)[C@@H]1C [RIFAMPIN] | 7.1 µM
26 | O=C(/C=C/c1ccc(O)c(O)c1)O[C@H](Cc1ccc(O)c(O)c1)C(=O)O [ROSMARINIC ACID] | 0.21 µM
27 | CN(C)[C@@H]1C(O)=C(C(N)=O)C(=O)[C@@]2(O)C(O)=C3C(=O)c4c(O)cccc4[C@@](C)(O)[C@H]3C[C@@H]12 [TETRACYCLINE] | 6.06 µM
